This is an account of results in US7892764B2, “System for seizure suppression” (priority 2006, dated 2011).

The test system of experiment [1] is cultured mouse hippocampal neurons. Put plainly: Cell culture model of epilepsy: kynurenic acid (Kyn) withdrawal-induced seizure-like activity, current-clamp recording. The class given is cell-based. The text has this:
We hypothesized that ASICs are involved in seizure propagation. Using the Furshpan and Potter cell culture model of epilepsy (Meller et al., 2003; Furshpan et al., 1998), we tested ASIC blockade in mouse hippocampal neurons cultured with the glutamate antagonist kynurenate (Kyn) and elevated Mg^2+. In the presence of Kyn, the majority of hippocampal neurons remained quiescent. […] Without amiloride, Kyn withdrawal-induced sustained depolarization of 39.5±2.1 mV and paroxysmal bursts at 4.0±0.5 Hz. With 30 μM amiloride, membrane depolarization was reduced to 28.6±2.7 mV (p<0.05, n=5) and burst activity reduced to 2.5±0.4 Hz (p<0.01, FIGS. 3C and 3D). Similarly, application of PcTX1 reduced membrane depolarization from 30.2±3.7 mV to 10.7±1.8 mV (n=8, p<0.01) and burst activity from 5.5±0.6 Hz to 1.2±0.3 Hz (n=9, p<0.01, FIGS. 3C, 3D, and 4).
Cell culture model of epilepsy. Long term cell culture model of epilepsy was performed as described (Furshpan et al., 1989; Meller et al., 2003). Briefly, hippocampal neurons prepared from 1-2 day-old C57BL/6 mice cultured in Neurobasal-A/B27 media supplemented with 10 mM Kyn and 5 mM MgCl2. Culture media was replenished with fresh kynurenic acid/Mg^2+ every 3 days. Cells were used for patch-clamp recording after 3 to 4 weeks. Following the formation of a tight seal in a whole-cell configuration, neurons were current-clamped at ˜−60 mV. In the presence of Kyn, the majority of hippocampal neurons remained quiescent. […] The spontaneous electrical behavior of the culture has many of the characteristics of seizure activity in an intact cortex. This system allows seizure-related cellular mechanisms to be studied in long-term cell culture.
Patch clamp techniques. Whole-cell voltage-clamp and current-clamp recordings were performed as described in our previous studies (Xiong et al., 2004). Patch electrodes were constructed from thin-welled borosilicate glass (1.5 mm diameter, WPI, Sarasota, Fla., USA) on a two-stage puller (PP83 Narishige, Tokyo). The resistances of patch electrodes were 1.5-3 MΩ when filled with the intracellular solution (see below). Whole-cell currents were recorded using Axopatch 200B amplifiers with pCLAMP software (Axon Instruments, CA, USA). Data were filtered at 2 kHz and digitized at 5 kHz using Digidata 1322 (Axon Instruments). During each experiment, a voltage step of −10 mV was applied periodically to monitor the cell capacitance and the access resistance. A multi-barrel perfusion system (SF-77, Warner Instrument Co., Conn., USA) was employed to achieve a rapid exchange of solutions. All experiments were performed at room temperature (22-24° C.).

Experiment [2] has as its target T1, ASICs (Mus musculus, UniProt Q6NXK8).
T1 construct: Primary neuronal cultures were prepared from embryonic Swiss mice at 15 to 16 days of gestation; endogenous in cells
T1 sequence (Q6NXK8 1-526): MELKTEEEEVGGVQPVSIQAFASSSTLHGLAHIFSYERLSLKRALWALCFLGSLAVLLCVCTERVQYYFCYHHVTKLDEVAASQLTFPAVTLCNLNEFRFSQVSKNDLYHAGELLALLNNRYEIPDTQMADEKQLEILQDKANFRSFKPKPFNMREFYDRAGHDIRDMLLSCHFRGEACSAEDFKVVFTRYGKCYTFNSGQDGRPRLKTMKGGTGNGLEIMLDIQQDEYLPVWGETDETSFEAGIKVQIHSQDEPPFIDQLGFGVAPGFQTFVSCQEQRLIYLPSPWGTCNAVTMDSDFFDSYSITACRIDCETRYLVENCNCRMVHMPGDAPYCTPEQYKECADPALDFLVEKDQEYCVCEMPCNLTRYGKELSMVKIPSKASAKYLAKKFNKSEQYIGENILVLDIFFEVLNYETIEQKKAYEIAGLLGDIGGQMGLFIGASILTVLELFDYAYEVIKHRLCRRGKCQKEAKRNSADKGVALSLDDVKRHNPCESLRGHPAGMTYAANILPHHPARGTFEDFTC
Description: Acid (pH 7.0/7.1)-induced membrane depolarization and neuronal firing, current-clamp recording. It is filed as cell-based. The text has this:
Unlike ischemia, only moderate pH changes (e.g., ˜0.3 pH unit) are reported in brain parenchyma during seizures (Chesler et al., 1988: Chesler et al., 1992), although pH in the synaptic cleft may be much lower (Chesler et al., 1992; Wemmie et al., 2006). […] One possibility is that voltage-clamp recording has relatively low sensitivity to resolve small current in whole-cell configuration. To provide more evidence that the decreases of pHo to the level seen in epilepsy can indeed activate the ASICs and cause neuronal excitation, we have also used current-clamp recording to study changes of membrane depolarization and neuronal firing by small changes of pHo. Due to the large input resistance of most CNS neurons (e.g., ˜500 MΩ), even a small membrane current (e.g., 10-20 pA, which is difficult to resolve in voltage-clamp recording in general) can induce significant membrane depolarization in current-clamp conditions. Mouse cortical neurons were used for current-clamp recordings 14 days after the culture.
Cortical neuronal culture. Primary neuronal cultures were prepared from embryonic Swiss mice at 15 to 16 days of gestation according to our previously described techniques (Xiong et al., 2004). In brief, cerebral cortices from 10 to 12 embryos were dissected and incubated with 0.05% trypsin-EDTA for 10 min, dissociated by trituration with a fire-polished glass pipette, and plated on poly-L-ornithine-coated culture dishes at a density of 0.5×10^6 cells per dish. Neurons were cultured with Neurobasal medium supplemented with B27 (Invitrogen). The cultures were maintained at 37° C. in a humidified 5% CO2 atmosphere incubator and were used for experiments after 12-14 days.
Patch clamp techniques. Whole-cell voltage-clamp and current-clamp recordings were performed as described in our previous studies (Xiong et al., 2004). […] Whole-cell currents were recorded using Axopatch 200B amplifiers with pCLAMP software (Axon Instruments, CA, USA). […]

Where [3] appears, read: PcTX1 (venom 200 ng/mL total protein per FIG. 4 legend).
Setting [4] is: 30 μM amiloride, perfused 2 min before and during Kyn withdrawal.

In the case of Psalmotoxin 1 [PcTX1], in experiment [1] (setting [3]), the “Kyn withdrawal-induced burst activity (frequency)” value worked out at 1.2±0.3 Hz and the “Kyn withdrawal-induced membrane depolarization” value was 10.7±1.8 mV. For the same molecule, the “effect on acid-induced depolarization and firing of action potentials” value in experiment [2] (pH 7.1) is “sensitive to PcTX1 inhibition”.
Turning to `NC(N)=NC(=O)c1nc(Cl)c(N)nc1N` [amiloride, 3,5-diamino-6-chloro-N(diaminomethylidene)pyrazine-2-carboxamide], in experiment [1] (setting [4]), the “Kyn withdrawal-induced paroxysmal burst activity (frequency)” value came to 2.5±0.4 Hz and the “Kyn withdrawal-induced sustained membrane depolarization” value amounted to 28.6±2.7 mV. In experiment [2] (pH 7.0, amiloride 100 μM or synthetic PcTX1 20 nM), the “effect on acid-induced neuronal excitation (membrane depolarization, firing rate)” value was “largely and significantly reduced”.
